“And” between values parts separate entries of the source, which are not always exact repeats. Equal values may be shown once. Read-outs that look alike come from different tables or passages of the source.
How the values were obtained:
[1] = Modeling and simulation of human PK for dose selection; conditions: total daily dose 1.0 mg, divided every 12 hours, 50th percentile
Text: The doses proposed for this study were selected after modeling and simulation of the human PK of CERC-006 using data reported by Mateo et al (Mateo J, Olmos D, Dumez H, et al. A first in man, dose-finding study of the mTORC1/mTORC2 inhibitor OSI-027 in patients with advanced solid malignancies. Br J Cancer. 2016114(8):889-896) and comparing the PK/PD response for sirolimus in patients with complicated vascular anomalies published by Adams et al (Adams et al, Pediatrics (2016)) and Mizuno et al (Mizuno T, Emoto C, Fukuda T, et al. Model-based precision dosing of sirolimus in pediatric patients with vascular anomalies. Eur J Pharm Sci. 2017; 109S:S124-S131). The goal was to estimate doses that would produce effective trough plasma concentrations of CERC-006 in relation to pharmacological target potency (mTOR complex inhibition) using the PK/PD response achieved by sirolimus in this patient population as a benchmark. […] The additional dose proposed, 2.0 mg/day, is necessary to ensure potential therapeutic benefit while preserving safety and providing a range of plasma concentrations to guide future PK/PD modeling efforts.

[2] = cited from earlier work
[3] = cited from earlier work; remark: listed apart in the source
[4] = linear extrapolation from simulated PK profile, listed as CERC-006
[5] = regardless of relationship, 123 subjects

COc1cccc2cc(-c3nc([C@H]4CC[C@H](C(=O)O)CC4)n4ncnc(N)c34)[nH]c12 [AVTX-006, trans-4-[4-Amino-5-(7-methoxyl-1H-indol-2-yl)-imidazo[5,1-f][1,2,4]triazine-7-yl]-cyclohexanecarboxylic acid]
Free trough concentration above the in vitro IC50 for mTOR complex inhibition [1]: approximately 2 fold | Free trough plasma concentration [1, 4]: ~4 ng/mL and ~10 nM | Total trough plasma concentration [1, 4]: approximately 27 ng/mL and ~66 nM | Estimated terminal half-life (t1/2) ([2]; 240 mg dose in S2 (weekly dose schedule)): approximately 14 hours | Dose proportionality of area under the curve (AUC) ([2]; S1 and S2, slope close to 1): dose proportional | Dose proportionality of increases in Cmax ([2]; S1 and S3): apparently proportional to dose | Subjects with TEAEs considered drug regimen-related ([3]; 92 of 123 subjects, by the investigator): 74.8% | Drug regimen related TEAE anorexia ([3]; 123 subjects): 21.1% | Drug regimen related TEAE fatigue ([3]; 123 subjects): 44.7% | Drug regimen related TEAE increased blood creatinine ([3]; 123 subjects): 26.0% | Drug regimen related TEAE nausea ([3]; 123 subjects): 40.7% | Drug regimen related TEAE vomiting ([3]; 123 subjects): 18.7% | Subjects with related SAEs ([3]; Fifteen subjects): 12.2% | Subjects with serious adverse events (SAEs) ([3]; Fifty of 123 subjects treated): 40.6% | Maximum tolerated dose (MTD) ([3]; S1: once daily for 3 consecutive days every 7 days): 120 mg | Deaths, subjects ([3]; S1): 48.2% | Maximum tolerated dose (MTD) ([3]; S2: once weekly, escalation stopped at 240 mg every week): not reached | Deaths, subjects ([3]; S2): 25.6% | Maximum tolerated dose (MTD) ([3]; S3: once daily dosing): 30 mg | Dose at which renal toxicity was dose limiting ([3]; S3: once daily): 40 mg | Deaths, subjects ([3]; S3): 14.3% | Deaths considered drug related ([3]; all schedules): None | Observed dose limiting toxicities (DLTs) ([3]; all schedules): fatigue, renal, and cardiac events | Related SAE anorexia ([3]; in vivo): 1 subject | Related SAE blood creatinine increased ([3]; in vivo): 2 subjects | Related SAE bone pain ([3]; in vivo): 1 subject | Related SAE cardiac failure congestive ([3]; in vivo): 1 subject | Related SAE cataract subcapsular ([3]; in vivo): 1 subject | Related SAE diarrhea ([3]; in vivo): 1 subject | Related SAE fatigue ([3]; in vivo): 3 subjects | Related SAE myocardial infarction ([3]; in vivo): 1 subject | Related SAE nausea ([3]; in vivo): 3 subjects | Related SAE pneumonia ([3]; in vivo): 1 subject | Related SAE renal failure ([3]; in vivo): 1 subject | Related SAE stress cardiomyopathy ([3]; in vivo): 1 subject | Related SAE supraventricular tachycardia ([3]; in vivo): 1 subject | Related SAE urticaria ([3]; in vivo): 1 subject | Related SAE vomiting ([3]; in vivo): 2 subjects | TEAE abdominal pain upper, subjects [3, 5]: 10.6% | TEAE abdominal pain, subjects [3, 5]: 17.1% | TEAE anemia, subjects [3, 5]: 13.8% | TEAE anorexia, subjects [3, 5]: 40.7% | TEAE back pain, subjects [3, 5]: 14.6% | TEAE blood creatinine increased, subjects [3, 5]: 28.5% | TEAE constipation, subjects [3, 5]: 25.2% | TEAE cough, subjects [3, 5]: 14.6% | TEAE diarrhea, subjects [3, 5]: 22.8% | TEAE dyspnea, subjects [3, 5]: 17.1% | TEAE fatigue, subjects [3, 5]: 65.0% | TEAE headache, subjects [3, 5]: 14.6% | TEAE hypokalemia, subjects [3, 5]: 12.2% | TEAE nausea, subjects [3, 5]: 60.2% | TEAE vomiting, subjects [3, 5]: 33.3% | TEAE weight decreased, subjects [3, 5]: 13.8%

From patent US20230381190A1, “Methods and Treatment for Complex Lymphatic Malformations” (priority 2022, published 2023)
